From patent publication US20060204980A1, “Colorectal cancer therapies” (priority 2004, published 2006)
“Also recorded” adds a separate entry of the source.

How the values were obtained:
[1] = target: T1, GSK3β (Homo sapiens, UniProt P49841); assay: Immunoprecipitation and GSK3β kinase assay using glycogen synthase-derived peptide substrate, from treated HCT116 cells; type: cell-based; design: harvested after 6 or 12 hours, and immunoprecipitated with an antibody to GSK3β; endogenous in cells; host or cells: HCT116 (p53+/+) colorectal carcinoma cells; settings: p53+/+ HCT116 cells; Purvalanol A 10 μM, LiCl 30 mM, TDZD 20 μM; 6 or 12 hours
Protocol: Immune complexes were mixed with a synthetic peptide containing a GSK3β phosphorylation site derived from the sequence of glycogen synthase (Upstate Biotechnology) in the presence of 10 μCi of γ-^32P-ATP (Amersham Corp., Piscataway, N.J.), after 30 min incubation at 30° C., the reaction mixtures were centrifuged briefly, and 15 μl of the supernatant was spotted onto P81 phosphocellulose paper (Whatman Inc., Clifton, N.J.). The membrane was washed three times with 175 mM phosphoric acid, rinsed once in acetone, and dried. Changes in peptide phosphorylation under the various conditions tested were determined by scintillation counting. Data were analyzed using the unpaired t test on a Graphpad Prism software package for Windows (Graphpad Inc., San Diego, Calif.). A P value of 0.05 was considered as statistically significant.

[2] = system: p53^+/+ HCT116 colorectal carcinoma cells; assay: Western blotting of p53 pathway proteins in treated p53+/+ HCT116 cells; type: cell-based
Protocol: (§1) Cells were collected and centrifuged at 3,000 rpm for 5 minutes at 4° C., and washed in PBS (pH 7.2). The cell pellet was solubilized in lysis buffer (20 mM Tris, pH 7.2, 0.5% deoxycholate, 1% Triton X-100, 0.1% SDS, 150 mM NaCl, 1 mM EDTA) containing proteases inhibitors (Complete, Roche Applied Science) for 30 min at 4° C. The lysate was cleared by centrifugation for 15 minutes, and protein concentration was evaluated using a Bio-Rad protein assay system (Bio-Rad Laboratories, Hercules, Calif.). Samples (30 μg) were separated by SDS-polyacrylamide gel, transferred to nylon membranes (Millipore), and incubated with primary antibodies to p53 (Oncogene Research Products, FL-393, Santa Cruz Biotechnology, Inc., Santa Cruz, Calif.), p21^Waf1/Cip1 (Oncogene Research Products), XIAP (BD Transduction Laboratories), survivin (NOVUS Biologicals, Littleton, Colo.), MDM2 (Santa Cruz Biotechnology, Inc.), p14^ARF (NOVUS Biologicals), caspase-3 (Cell Signaling Technology), cleaved caspase-3 (Cell Signaling Technology), β-catenin (BD Transduction Laboratories), cyclin B1 (GNS1, Santa Cruz Biotechnology, Inc.), GSK3β (Santa Cruz Biotechnology, Inc.), or β-sactin (Sigma) with detection of reactive bands by chemiluminescence (Amersham). Cells were analyzed for hypodiploid DNA content by propidium iodide staining and flow cytometry as described in O'Connor et al., Cancer Cell, 2:43-54 (2002). Chemicals whose source is not explicitly listed were or can be obtained from Sigma.
To explore the link between GSK3β inhibition and p53 modulation, in vivo, HCT116 cells were treated with Li, TDZD or SB216763, and analyzed cells by Western blotting. p53^+/+ or p53^−/− HCT116 cells were incubated with the following GSK3β inhibitors, LiCl (Sigma, 30 mM), thiadiazolidinone-8 (TDZD) (Calbiochem, 0-20 μM), or SB216763 (Sigma, 20 μM), cells were harvested after 6-24 hours, and samples were analyzed by Western blotting as described in Example 2. […]

[3] = system: p53^−/− HCT116 colorectal carcinoma cells; assay: Western blotting of p53 pathway proteins in treated p53-/- HCT116 cells; type: cell-based
Protocol: as §1
To explore the link between GSK3β inhibition and p53 modulation, in vivo, HCT116 cells were treated with Li, TDZD or SB216763, and analyzed cells by Western blotting. p53^+/+ or p53^−/− HCT116 cells were incubated with the following GSK3β inhibitors, LiCl (Sigma, 30 mM), thiadiazolidinone-8 (TDZD) (Calbiochem, 0-20 μM), or SB216763 (Sigma, 20 μM), cells were harvested after 6-24 hours, and samples were analyzed by Western blotting as described in Example 2.

[4] = system: p53^+/+ HCT116 cells; assay: Hypodiploid DNA content by propidium iodide staining and flow cytometry, p53+/+ HCT116; type: cell-based; settings: 0-20 μM, 48 hours
Protocol: Cells were collected and centrifuged at 3,000 rpm for 5 minutes at 4° C., and washed in PBS (pH 7.2). The cell pellet was solubilized in lysis buffer (20 mM Tris, pH 7.2, 0.5% deoxycholate, 1% Triton X-100, 0.1% SDS, 150 mM NaCl, 1 mM EDTA) containing proteases inhibitors (Complete, Roche Applied Science) for 30 min at 4° C. The lysate was cleared by centrifugation for 15 minutes, and protein concentration was evaluated using a Bio-Rad protein assay system (Bio-Rad Laboratories, Hercules, Calif.). […] Cells were analyzed for hypodiploid DNA content by propidium iodide staining and flow cytometry as described in O'Connor et al., Cancer Cell, 2:43-54 (2002). […]
The functional consequences of GSK3β inhibition were explored. […] Alternatively, cells were incubated with GSK3β inhibitors LiCl (30 mM) or TDZD (20 μM), harvested after 48 hours and analyzed for cell viability (propidium iodide, red channel) and active caspase-3/7 activity (green channel, […]®, from Chemicon International Inc., Temecula, Calif.), by multiparametric flow cytometry as reported previously in Kim et al., Lancet, 362:205-209 (2003).

[5] = target: T1, GSK3β; settings: battery of kinase substrates, Bain et al.; cited from earlier work
[6] = system: p42/p44 MAP kinase; settings: in vivo, Knockaert et al.; cited from earlier work
[7] = system: in vivo adapted p53^+/+ HCT116 cells; assay: Xenograft tumor model with in vivo adapted p53+/+ HCT116 cells; design: species or system CB17 SCID/beige mice
Protocol: In vivo adapted p53^+/+ HCT116 cells (2.5×10^6) were injected in the flank of CB17 SCID/beige mice (Taconics, Germantown, N.Y.) and allowed to form palpable solid tumors for 4-6 days. […] Tumor measurements were taken daily for a week with a caliper. Tumor volume was calculated according to the formula ½ [length (mm)]×[width (mm)]^2.
Adapted HCT116 cells in CB-17 SCID/beige mice gave rise to rapidly growing solid tumors over a one-week period. […] See filled-in circles in FIG. 7.

[8] = target: Cdk2 (Homo sapiens, UniProt P24941); settings: in vivo, Knockaert et al.; cited from earlier work

T1 sequence (P49841 whole entry): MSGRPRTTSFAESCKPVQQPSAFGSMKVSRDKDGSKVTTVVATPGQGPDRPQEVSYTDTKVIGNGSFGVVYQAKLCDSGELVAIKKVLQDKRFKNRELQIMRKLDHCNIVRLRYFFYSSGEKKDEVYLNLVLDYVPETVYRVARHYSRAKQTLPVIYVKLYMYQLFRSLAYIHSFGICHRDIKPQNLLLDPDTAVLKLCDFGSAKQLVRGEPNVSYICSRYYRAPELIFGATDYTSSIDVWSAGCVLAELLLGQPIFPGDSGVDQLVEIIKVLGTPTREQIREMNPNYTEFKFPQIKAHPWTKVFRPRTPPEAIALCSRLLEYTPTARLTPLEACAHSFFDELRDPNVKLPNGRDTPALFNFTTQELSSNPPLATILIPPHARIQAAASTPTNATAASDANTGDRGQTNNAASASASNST

## CC(C)[C@H](CO)Nc1nc(Nc2cccc(Cl)c2)c2ncn(C(C)C)c2n1 [Purvalanol A]
[1]
  GSK3β kinase activity (peptide phosphorylation): potently inhibited GSK3β kinase activity
[2]; HCT116 cells
  MDM2 expression (Western blot): reduced expression
[2]; HCT116 cells, relative to vehicle
  p14^ARF expression (Western blot): upregulation of p14^ARF
[2]; p53+/+ HCT116
  XIAP expression (Western blot): no changes in the expression
  survivin expression (Western blot): loss of survivin expression; also recorded: time-dependent downregulation of survivin
[2]; p53+/+ HCT116, 10 μM, 6-48 hour
  caspase-3 cleavage (Western blot): time-dependent cleavage of 32 kD proform caspase-3 to active caspase-3 fragments
[2]; p53+/+ HCT116, 6-24 hours
  p21^Waf1/Cip1 expression (Western blot): upregulation of p21^Waf1/Cip1
  p53 expression (Western blot): time-dependent accumulation of p53
[3]
  p53-reactive material (Western blot): did not modulate the expression of p53-reactive material
  survivin expression (Western blot): no significant changes in survivin levels
[4]
  apoptosis (hypodiploid DNA content): concentration-dependent induction of apoptosis
[5]
  activity against GSK3β in vitro: not active against GSK3β
[6]
  suppression of p42/p44 MAP kinase: equally effective
[7]; 20 mg/kg i.p. daily for 5 consecutive days
  systemic toxicity, weight loss: No signs of systemic toxicity or weight loss
[7]; 25 mg/kg i.p. daily for 5 days
  early tumor growth (tumor volume): significantly inhibited early tumor growth
[7]; 50 mg/kg i.p. injection daily for 5 days, versus lower dose
  tumor growth (tumor volume): did not result in further inhibition of tumor growth
[7]; 25 and 50 mg/kg i.p. daily for 5 days
  local or systemic toxicity, weight loss: no signs of local or systemic toxicity or weight loss
[8]
  suppression of Cdk2: equally effective
